Values quoted from earlier work in US6548087B1, “Nutritional supplement” (priority 1999, dated 2003).

System: libido and performance
Conditions: daily use

## C[C@]12CC[C@H](O)CC1=CC[C@@H]1[C@@H]2CC[C@]2(C)C(=O)CC[C@@H]12 [DHEA, dehydroepiandrosterone]
  effect on libido and performance: increase libido and performance
